According to the supplement of paper PMC10307832:

Legend:
Experiment in all cases: relative viability (nuclei count vs DMSO), 5 days (fraction); higher = more cells survive
IPA-3 + Trametinib = compound: C1=CC=C2C(=C1)C=CC(=C2SSC3=C(C=CC4=CC=CC=C43)O)O [IPA-3] + CC(=O)Nc1cccc(-n2c(=O)n(C3CC3)c(=O)c3c(Nc4ccc(I)cc4F)n(C)c(=O)c(C)c32)c1 [Trametinib] (partner 0.02 µM)
Outline: (§1)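 Values are medians from duplicate plates. Each reflects relative viability, defined as the nuclei count of treated wells over that of vehicle wells. Lung cancer cell lines in 1536-well plates were pin-tool dosed one day after seeding with one drug alone or with a fixed anchor-drug dose plus five library-drug doses (not always all listed) in √10 steps, then fixed, stained and imaged at 4× after 5 days.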

IPA-3 + Crizotinib = compound: C1=CC=C2C(=C1)C=CC(=C2SSC3=C(C=CC4=CC=CC=C43)O)O [IPA-3] + C[C@@H](Oc1cc(-c2cnn(C3CCNCC3)c2)cnc1N)c1c(Cl)ccc(F)c1Cl [Crizotinib] (partner 1 µM)
Outline: as §1

Doramapimod + Pictilisib = compound: Cc1ccc(-n2nc(C(C)(C)C)cc2NC(=O)Nc2ccc(OCCN3CCOCC3)c3ccccc23)cc1 [Doramapimod] + CS(=O)(=O)N1CCN(Cc2cc3nc(-c4cccc5[nH]ncc45)nc(N4CCOCC4)c3s2)CC1 [Pictilisib] (partner 1 µM)
Outline: as §1

Doramapimod + Olaparib = compound: Cc1ccc(-n2nc(C(C)(C)C)cc2NC(=O)Nc2ccc(OCCN3CCOCC3)c3ccccc23)cc1 [Doramapimod] + O=C(c1cc(Cc2n[nH]c(=O)c3ccccc23)ccc1F)N1CCN(C(=O)C2CC2)CC1 [Olaparib] (partner 8 µM)
Outline: as §1

| Cell Line | relative viability (IPA-3 + Trametinib; first compound 0.2 µM) | relative viability (IPA-3 + Trametinib; first compound 0.6325 µM) | relative viability (IPA-3 + Trametinib; first compound 2 µM) | relative viability (IPA-3 + Trametinib; first compound 6.325 µM) | relative viability (IPA-3 + Trametinib; first compound 20 µM) | relative viability (IPA-3 + Crizotinib; first compound 0.2 µM) | relative viability (IPA-3 + Crizotinib; first compound 0.6325 µM) | relative viability (IPA-3 + Crizotinib; first compound 2 µM) | relative viability (IPA-3 + Crizotinib; first compound 6.325 µM) | relative viability (IPA-3 + Crizotinib; first compound 20 µM) | relative viability (Doramapimod + Pictilisib; first compound 0.02 µM) | relative viability (Doramapimod + Pictilisib; first compound 0.06325 µM) | relative viability (Doramapimod + Pictilisib; first compound 0.2 µM) | relative viability (Doramapimod + Pictilisib; first compound 0.6325 µM) | relative viability (Doramapimod + Pictilisib; first compound 2 µM) | relative viability (Doramapimod + Olaparib; first compound 0.02 µM) | relative viability (Doramapimod + Olaparib; first compound 0.06325 µM) | relative viability (Doramapimod + Olaparib; first compound 0.2 µM) | relative viability (Doramapimod + Olaparib; first compound 0.6325 µM) | relative viability (Doramapimod + Olaparib; first compound 2 µM) |
| --- | --- | --- | --- | --- | --- | --- | --- | --- | --- | --- | --- | --- | --- | --- | --- | --- | --- | --- | --- | --- |
| NCI-H1944 | 0.436 | 0.433 | 0.401 | 0.42 | 0.415 | 1.21 | 0.995 | 1.11 | 1.17 | 1.07 | 0.319 | 0.378 | 0.339 | 0.372 | 0.322 | 0.394 | 0.434 | 0.438 | 0.409 | 0.371 |
| NCI-H358 | 0.136 | 0.132 | 0.134 | 0.134 | 0.114 | 0.454 | 0.663 | 0.611 | 0.595 | 0.574 | 0.388 | 0.329 | 0.373 | 0.373 | 0.321 | 0.54 | 0.565 | 0.516 | 0.676 | 0.511 |
| NCI-H1734 | 0.661 | 0.628 | 0.707 | 0.618 | 0.72 | 0.745 | 0.648 | 0.71 | 0.703 | 0.698 | 0.418 | 0.356 | 0.352 | 0.466 | 0.325 | 0.572 | 0.595 | 0.587 | 0.573 | 0.497 |
| A-427 | 0.798 | 0.769 | 0.705 | 0.629 | 0.732 | 1.11 | 0.775 | 0.896 | 0.91 | 1.12 | 0.642 | 0.814 | 0.845 |  | 0.676 | 0.86 | 0.85 | 0.838 |  | 0.738 |
| RERF-LC-KJ | 1.01 | 0.877 | 0.84 | 0.872 | 0.891 | 0.794 | 0.796 | 0.922 | 0.789 | 0.816 | 0.569 | 0.536 | 0.56 | 0.581 | 0.55 | 0.916 | 0.864 | 1.08 | 1.01 | 0.887 |
| NCI-H727 | 0.373 | 0.409 | 0.402 | 0.344 | 0.417 | 0.937 | 0.765 | 0.818 | 0.699 | 0.792 | 0.213 | 0.5 | 0.408 | 0.321 | 0.411 | 0.711 | 0.723 | 0.772 | 0.726 | 0.595 |
| LCLC-97TM1 | 0.221 | 0.206 | 0.205 | 0.218 | 0.223 | 0.439 | 0.355 | 0.448 | 0.315 | 0.343 | 0.195 | 0.162 | 0.177 | 0.18 | 0.206 | 0.454 | 0.477 | 0.539 | 0.426 | 0.254 |
| BEN | 1.05 | 1.04 | 1.15 | 1.13 | 1.16 | 1.01 | 0.905 | 0.98 | 0.788 | 0.961 | 0.578 | 0.501 | 0.524 | 0.559 | 0.531 | 1.05 | 1.1 | 1.01 | 0.901 | 0.967 |
| NCI-H2023 | 0.735 | 0.453 | 0.659 | 0.612 | 0.584 | 0.714 | 0.58 | 0.809 | 0.735 | 0.893 | 0.25 | 0.195 | 0.195 | 0.152 | 0.213 | 0.546 | 0.534 | 0.491 | 0.563 | 0.456 |
| LC-2-ad | 0.958 | 0.943 | 0.93 | 0.948 | 0.889 | 0.499 | 0.523 | 0.419 | 0.477 | 0.488 | 0.303 | 0.429 | 0.605 | 0.537 | 0.267 | 0.692 | 0.801 | 0.759 | 0.732 | 0.766 |
| NCI-H647 | 0.69 | 0.445 | 0.558 | 0.284 | 0.0977 | 1.22 | 1.01 | 0.991 | 0.596 | 0.173 | 0.434 | 0.509 | 0.428 | 0.664 | 0.406 | 0.475 | 0.488 | 0.509 | 0.443 | 0.444 |
| NCI-H1755 | 0.764 | 0.797 | 0.739 | 0.739 | 0.753 | 0.971 | 0.763 | 0.964 | 0.808 | 0.95 | 0.364 | 0.382 | 0.455 | 0.447 | 0.393 | 0.865 | 0.85 | 0.847 | 0.811 | 0.829 |
| EPLC-272H | 0.327 | 0.337 | 0.273 | 0.301 | 0.319 | 1.16 | 0.808 | 0.995 | 0.912 | 1.23 | 0.344 | 0.418 | 0.377 | 0.296 | 0.275 | 0.732 | 0.766 | 0.726 | 1.03 | 0.717 |
| NCI-H1437 | 0.712 | 0.611 | 0.483 | 0.468 | 0.546 | 1.19 | 0.896 | 1.04 | 0.895 | 1.34 | 0.453 | 0.411 | 0.37 | 0.596 | 0.415 | 0.645 | 0.641 | 0.654 | 0.657 | 0.637 |
| EKVX | 0.403 | 0.314 | 0.359 | 0.38 | 0.376 | 1.24 | 0.965 | 0.951 | 0.799 | 1.22 | 0.391 | 0.375 | 0.364 | 0.513 | 0.352 | 0.955 | 0.775 | 0.888 | 0.844 | 0.742 |
| NCI-H1651 | 0.945 | 0.798 | 0.883 | 0.904 | 0.971 | 0.962 | 0.85 | 0.909 | 0.88 | 0.961 | 0.605 | 0.478 | 0.551 | 0.695 | 0.519 | 0.203 | 0.19 | 0.17 | 0.204 | 0.194 |
